The first assay has as its system Utrophin A promoter linked to a luciferase reporter gene. In words: Luciferase reporter assay (murine H2K cells), H2K/mdx/Utro A reporter cell line. The class given is cell-based. The following applies: 48 h; test compound concentration 0.3 μM; mdx mouse H2K Utrophin A reporter cells; read-out: Activity (luciferase level relative to control). In outline: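 Immortalized mdx mouse H2K myoblasts stably carrying ~5 kb utrophin A promoter–luciferase construct, kept at 33 °C, 10% CO2. Compound added 24 h after plating, typically at 10 μM final, for 48 h; luciferase measured by cell lysis and luminescence.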
For orientation: A reporter such as luciferase makes a cellular process visible.
Turning to `CS(=O)(=O)c1ccc(Cn2nc(NC(=O)Nc3ccc(Cl)cc3)c3ccccc32)cc1` [Compound 118, 1-(4-chlorophenyl)-3-(1-(4-(methylsulfonyl)benzyl)-1H-indazol-3-yl)urea], the activity at 0.3 µM is less than 200%.

Staying with this assay, now noted: 48 h; test compound concentration 3 μM; mdx mouse H2K Utrophin A reporter cells; read-out: Activity (luciferase level relative to control).
Regarding `O=C(Nc1ccc2c(c1)OCO2)c1nn(CCc2ccc(C(=O)N3CCOCC3)cc2)c2ccccc12` [Compound 92, N-(benzo[d][1,3]dioxol-5-yl)-1-(4-(morpholine-4-carbonyl)phenethyl)-1H-indazole-3-carboxamide], the activity at 3 µM was less than 200%.
The same measure, in the same setting: with `CS(=O)(=O)c1ccc(Cn2nc(C(=O)Nc3cnc4ccccc4c3)c3ccccc32)cc1` [Compound 103, 1-(4-(methylsulfonyl)benzyl)-N-(quinolin-3-yl)-1H-indazole-3-carboxamide] the figure was less than 200%.

The same assay, now with this note: 48 h; test compound concentration 10 μM; mdx mouse H2K Utrophin A reporter cells; read-out: Activity (luciferase level relative to control).
With `O=C(Nc1ccc2c(c1)OCO2)c1nn(Cc2ccc(C(=O)N3CCCCC3)cc2)c2ccccc12` [Compound 93, N-(benzo[d][1,3]dioxol-5-yl)-1-(4-(piperidine-1-carbonyl)benzyl)-1H-indazole-3-carboxamide], the activity at 10 µM is less than 200%.
Same read-out and setting: the value for `CS(=O)(=O)c1ccc(Cn2nc(C(=O)Nc3ccc(F)cc3)c3ccccc32)cc1` [Compound 94, N-(4-fluorophenyl)-1-(4-(methylsulfonyl)benzyl)-1H-indazole-3-carboxamide] was less than 200%; that for `CS(=O)(=O)c1ccc(Cn2nc(-c3nc4ccc(Cl)cc4o3)c3ccccc32)cc1` [Compound 95, 6-chloro-2-(1-(4-(methylsulfonyl)benzyl)-1H-indazol-3-yl)benzo[d]oxazole] was less than 200%.
Same read-out and setting: with `CC(C)c1cccc(NC(=O)c2nn(Cc3ccc(S(C)(=O)=O)cc3)c3ccccc23)c1` [Compound 96, N-(3-isopropylphenyl)-1-(4-(methylsulfonyl)benzyl)-1H-indazole-3-carboxamide] the figure was less than 200%; with `O=C(Nc1ccc2c(c1)OCO2)c1nn(Cc2ccncc2)c2ccccc12` [Compound 97, N-(benzo[d][1,3]dioxol-5-yl)-1-(pyridin-4-ylmethyl)-1H-indazole-3-carboxamide], less than 200%.
On the same count and under the same terms, the value for `CC(C)c1nsc(NC(=O)c2nn(Cc3ccc(S(C)(=O)=O)cc3)c3ccccc23)n1` [Compound 98, N-(3-isopropyl-1,2,4-thiadiazol-5-yl)-1-(4-(methylsulfonyl)benzyl)-1H-indazole-3-carboxamide] was less than 200%.
For `CS(=O)(=O)c1ccc(Cn2nc(C(=O)Nc3ccc4ncccc4c3)c3ccccc32)cc1` [Compound 99, 1-(4-(methylsulfonyl)benzyl)-N-(quinolin-6-yl)-1H-indazole-3-carboxamide], the activity at 10 µM fell in the range of 201 to 300%.
Same read-out and setting: with `O=C(Nc1ccc2c(c1)OCO2)c1nn(Cc2cccc(C(=O)N3CCOCC3)c2)c2ccccc12` [Compound 100, N-(benzo[d][1,3]dioxol-5-yl)-1-(3-(morpholine-4-carbonyl)benzyl)-1H-indazole-3-carboxamide] the figure was less than 200%.
On the same count and under the same terms, the value for `CS(=O)(=O)c1ccc(Cn2nc(C(=O)Nc3ccc(S(C)(=O)=O)cc3)c3ccccc32)cc1` [Compound 101, 1-(4-(methylsulfonyl)benzyl)-N-(4-(methylsulfonyl)phenyl)-1H-indazole-3-carboxamide] was less than 200%.
On the same count and under the same terms, with `CS(=O)(=O)c1ccc(Cn2nc(C(=S)Nc3ccc4c(c3)OCO4)c3ccccc32)cc1` [Compound 102, N-(benzo[d][1,3]dioxol-5-yl)-1-(4-(methylsulfonyl)benzyl)-1H-indazole-3-carbothioamide] the figure was 201 to 300%; with `Cc1ccc(NC(=O)c2nn(Cc3ccc(S(C)(=O)=O)cc3)c3ccccc23)cc1C` [Compound 104, N-(3,4-dimethylphenyl)-1-(4-(methylsulfonyl)benzyl)-1H-indazole-3-carboxamide], 301 to 400%; with `CS(=O)(=O)c1ccc(Cn2nc(C(=O)Nc3ccc4c(c3)OCCO4)c3ccccc32)cc1` [Compound 105, N-(2,3-dihydrobenzo[b][1,4]dioxin-6-yl)-1-(4-(methylsulfonyl)benzyl)-1H-indazole-3-carboxamide], greater than 401%.
Turning to `O=C(Nc1ccc2c(c1)OCO2)c1nn(Cc2cccnc2)c2ccccc12` [Compound 106, N-(benzo[d][1,3]dioxol-5-yl)-1-(pyridin-3-ylmethyl)-1H-indazole-3-carboxamide], the activity at 10 µM was 201 to 300%.
The same measure, in the same setting: the value for `CC(=O)Nc1ccc(NC(=O)c2nn(Cc3ccc(S(C)(=O)=O)cc3)c3ccccc23)cc1` [Compound 107, N-(4-acetamidophenyl)-1-(4-(methylsulfonyl)benzyl)-1H-indazole-3-carboxamide] was 201 to 300%; that for `Cc1ccc(NC(=O)c2nn(Cc3ccc(S(C)(=O)=O)cc3)c3ccccc23)cc1` [Compound 108, 1-(4-(methylsulfonyl)benzyl)-N-p-tolyl-1H-indazole-3-carboxamide] was greater than 401%; that for `CC(=O)Nc1ccc(NC(=O)c2nn(Cc3ccc(C(F)(F)F)cc3)c3ccccc23)cc1` [Compound 109, N-(4-acetamidophenyl)-1-(4-(trifluoromethyl)benzyl)-1H-indazole-3-carboxamide] was less than 200%.
The same measure, in the same setting: with `CS(=O)(=O)c1ccc(Cn2nc(C(=O)Nc3ccc4nccnc4c3)c3ccccc32)cc1` [Compound 110, 1-(4-(methylsulfonyl)benzyl)-N-(quinoxalin-6-yl)-1H-indazole-3-carboxamide] the figure was 301 to 400%; with `CS(=O)(=O)c1ccc(Cn2nc(C(=O)Nc3ccc(Cl)c(Cl)c3)c3ccccc32)cc1` [Compound 111, N-(3,4-dichlorophenyl)-1-(4-(methylsulfonyl)benzyl)-1H-indazole-3-carboxamide], less than 200%; with `CCCc1ccc(NC(=O)c2nn(Cc3ccc(S(C)(=O)=O)cc3)c3ccccc23)cc1` [Compound 112, 1-(4-(methylsulfonyl)benzyl)-N-(4-propylphenyl)-1H-indazole-3-carboxamide], 201 to 300%.
Still for that read-out and setting: with `CS(=O)(=O)c1ccc(Cn2nc(C(=O)Nc3ccc4c(c3)CS(=O)(=O)C4)c3ccccc32)cc1` [Compound 113, N-(1,3-dihydrobenzo[c]thiophen-2,2-dioxy-5-yl)-1-(4-(methylsulfonyl)benzyl)-1H-indazole-3-carboxamide] the figure was less than 200%.
As for `O=C(Nc1ccc2c(c1)OCO2)c1nn(Cc2ccc(C(F)(F)F)cc2)c2ccccc12` [Compound 115, N-(benzo[d][1,3]dioxol-5-yl)-1-(4-(trifluoromethyl)benzyl)-1H-indazole-3-carboxamide], the activity at 10 µM was less than 200%.
On the same count and under the same terms, the value for `CS(=O)(=O)c1ccc(Cn2nc(C(=O)Nc3ccc4ccccc4c3)c3ccccc32)cc1` [Compound 116, 1-(4-(methylsulfonyl)benzyl)-N-(naphthalen-2-yl)-1H-indazole-3-carboxamide] was 201 to 300%.
Same read-out and setting: the value for `CN(C)C(=O)c1ccc(Cn2nc(C(=O)Nc3ccc4c(c3)OCO4)c3ccccc32)cc1` [Compound 117, N-(benzo[d][1,3]dioxol-5-yl)-1-(4-(dimethylcarbamoyl)benzyl)-1H-indazole-3-carboxamide] was 201 to 300%; that for `CC(C)c1ccc(Cn2nc(C(=O)Nc3ccc4c(c3)OCO4)c3ccccc32)cc1` [Compound 119, N-(benzo[d][1,3]dioxol-5-yl)-1-(4-isopropylbenzyl)-1H-indazole-3-carboxamide] was less than 200%.

The values above are taken from US20100305120A1, “COMPOUNDS FOR TREATING MUSCULAR DYSTROPHY” (BIOMARIN IGA LIMITED, priority 2008, published 2010).
